Each block holds one compound with its values, some of them ahead of it.
Molecular target: human F508del-CFTR (Homo sapiens, UniProt P13569, DEL508-508)
Assay: F508del-CFTR cell surface expression (corrector activity), DiscoveRx ß-galactosidase complementation chemiluminescence assay in recombinant U2OS cell line;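 also: U2OS cells co-expressing ProLink-tagged F508del-CFTR and a membrane-anchored enzyme acceptor, where more surface CFTR restores β-galactosidase activity measured by chemiluminescence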
Conditions: for EC50: EC50, F508del-CFTR cell surface expression; for Emax: U2OS
[1] = U2OS cells, 16h compound incubation, geomean values
[2] = in relation to Emax of corrector lumacaftor (=100%), arithmetic mean values
[3] = U2OS cells, 16h compound incubation, geomean of several measurements
[4] = in relation to the Emax of the corrector lumacaftor (=100%), U2OS cells, 16h compound incubation, arithmetic mean
[5] = U2OS cell line, 16h compound incubation, geomean values
[6] = in relation to the Emax of the corrector lumacaftor (=100%), U2OS cell line, 16h compound incubation, arithmetic mean values

Chain of human F508del-CFTR (P13569 with tags, fused parts or gaps DEL508-508): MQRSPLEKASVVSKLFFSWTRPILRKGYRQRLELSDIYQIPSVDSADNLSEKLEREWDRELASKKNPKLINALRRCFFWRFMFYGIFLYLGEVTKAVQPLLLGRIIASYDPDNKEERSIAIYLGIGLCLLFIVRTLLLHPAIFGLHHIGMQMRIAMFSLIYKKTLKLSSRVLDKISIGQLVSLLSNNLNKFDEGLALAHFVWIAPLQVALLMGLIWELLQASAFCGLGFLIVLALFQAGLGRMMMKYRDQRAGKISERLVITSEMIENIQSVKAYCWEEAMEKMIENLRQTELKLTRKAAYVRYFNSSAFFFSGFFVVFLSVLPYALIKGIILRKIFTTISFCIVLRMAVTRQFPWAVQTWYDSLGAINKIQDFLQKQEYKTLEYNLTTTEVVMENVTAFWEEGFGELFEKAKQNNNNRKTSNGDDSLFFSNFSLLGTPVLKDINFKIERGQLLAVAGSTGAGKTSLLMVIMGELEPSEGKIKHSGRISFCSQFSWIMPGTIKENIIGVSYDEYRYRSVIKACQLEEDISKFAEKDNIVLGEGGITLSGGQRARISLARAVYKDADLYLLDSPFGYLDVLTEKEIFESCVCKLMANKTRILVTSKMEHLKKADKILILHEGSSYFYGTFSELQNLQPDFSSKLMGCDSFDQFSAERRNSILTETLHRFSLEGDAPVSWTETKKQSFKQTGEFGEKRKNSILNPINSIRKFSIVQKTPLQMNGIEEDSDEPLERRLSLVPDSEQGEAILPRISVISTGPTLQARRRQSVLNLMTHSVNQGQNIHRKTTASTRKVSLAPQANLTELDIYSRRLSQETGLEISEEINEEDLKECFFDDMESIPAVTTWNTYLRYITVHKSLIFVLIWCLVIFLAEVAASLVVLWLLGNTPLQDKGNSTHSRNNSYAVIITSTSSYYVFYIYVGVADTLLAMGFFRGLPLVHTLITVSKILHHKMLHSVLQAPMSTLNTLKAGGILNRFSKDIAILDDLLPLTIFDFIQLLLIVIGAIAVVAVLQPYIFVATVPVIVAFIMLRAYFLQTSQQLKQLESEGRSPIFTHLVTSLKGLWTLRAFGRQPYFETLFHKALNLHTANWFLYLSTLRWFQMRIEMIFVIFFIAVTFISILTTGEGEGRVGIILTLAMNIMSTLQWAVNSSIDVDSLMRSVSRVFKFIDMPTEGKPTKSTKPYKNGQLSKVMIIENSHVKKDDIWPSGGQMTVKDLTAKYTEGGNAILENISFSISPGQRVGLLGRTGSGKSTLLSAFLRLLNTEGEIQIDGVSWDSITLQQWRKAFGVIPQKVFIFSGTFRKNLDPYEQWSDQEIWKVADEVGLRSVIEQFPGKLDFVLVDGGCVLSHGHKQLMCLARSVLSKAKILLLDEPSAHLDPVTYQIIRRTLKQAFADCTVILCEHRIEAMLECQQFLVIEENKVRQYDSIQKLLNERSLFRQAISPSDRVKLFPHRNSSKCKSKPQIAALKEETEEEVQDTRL

SMILES: COc1cccc(CCNC(=O)[C@@H]2CC(=O)N(C)[C@@H](CC(C)C)C(=O)N3CCCC[C@@H]3C(=O)N[C@H](Cc3ccccc3)COc3ccc4nc(C)oc4c3C(=O)N2)c1 [Example 614, (8S,12S,18aR,21R)-21-benzyl-12-isobutyl-N-(3-methoxyphenethyl)-4,11-dimethyl-6,10,13,19-tetraoxo-6,7,8,9,10,11,12,13,16,17,18,18a,19,20,21,22-hexadecahydro-15H-oxazolo[4′,5′:5,6]benzo[1,2-p]pyrido[2,1-f][1]oxa[4,7,10,14]tetraazacycloheptadecine-8-carboxamide]
EC50 [1]: 484 nM
Emax [2]: 317%

SMILES: Cc1nc2ccc3c(c2o1)C(=O)N[C@H](C(=O)NCCc1nc2c(s1)CCC2)CC(=O)N(C)[C@@H](CC(C)C)C(=O)N1CCN(C2CC2)C[C@@H]1C(=O)N[C@H](Cc1ccccc1)CO3 [Example 420, (8S,12S,18aR,21R)-21-benzyl-17-cyclopropyl-N-(2-(5,6-dihydro-4H-cyclopenta[d]thiazol-2-yl)ethyl)-12-isobutyl-4,11-dimethyl-6,10,13,19-tetraoxo-6,7,8,9,10,11,12,13,16,17,18,18a,19,20,21,22-hexadecahydro-15H-oxazolo[4′,5′:5,6]benzo[1,2-p]pyrazino[2,1-f][1]oxa[4,7,10,14]tetraazacycloheptadecine-8-carboxamide]
EC50 [1]: 437 nM
Emax [2]: 231%

SMILES: COCCCNC(=O)[C@@H]1CC(=O)N(C)[C@@H](CC(C)C)C(=O)N(C)[C@H](Cc2nc(-c3ccc(F)cn3)no2)C(=O)N[C@H](Cc2ccccc2)COc2cnc3ccc(F)cc3c2C(=O)N1 [Example 845, (3S,7S,10R,13R)-13-benzyl-20-fluoro-10-((3-(5-fluoropyridin-2-yl)-1,2,4-oxadiazol-5-yl)methyl)-7-isobutyl-N-(3-methoxypropyl)-6,9-dimethyl-1,5,8,11-tetraoxo-1,2,3,4,5,6,7,8,9,10,11,12,13,14-tetradecahydro-[1]oxa[4,7,10,14]tetraazacycloheptadecino[17,16-c]quinoline-3-carboxamide]
EC50 [3]: 453 nM
Emax [4]: 308%

SMILES: COc1cccc2c1C(=O)N[C@H](C(=O)NCCc1cccs1)CC(=O)N(C)[C@@H](CC(C)C)C(=O)N(CCC1CCCCC1)CC(=O)N[C@H](Cc1ccccc1)CO2 [Example 206, (3R,9S,13S)-3-benzyl-7-(2-cyclohexylethyl)-9-isobutyl-16-methoxy-10-methyl-5,8,11,15-tetraoxo-N-(2-(thiophen-2-yl)ethyl)-2,3,4,5,6,7,8,9,10,11,12,13,14,15-tetradecahydrobenzo[p][1]oxa[4,7,10,14]tetraazacycloheptadecine-13-carboxamide]
EC50 [5]: 272 nM
Emax [6]: 164%

SMILES: CC(C)C[C@H]1C(=O)N(C[C@H]2CCCCO2)CC(=O)N[C@H](Cc2ccccc2)COc2ccc3ccccc3c2C(=O)N[C@H](C(=O)NCCc2ccc3c(c2)OCO3)CC(=O)N1C (racemic) [Example 162, (3RS,7S,13R)-N-(2-(benzo[d][1,3]dioxol-5-yl)ethyl)-13-benzyl-7-isobutyl-6-methyl-1,5,8,11-tetraoxo-9-(((R)-tetrahydro-2H-pyran-2-yl)methyl)-1,2,3,4,5,6,7,8,9,10,11,12,13,14-tetradecahydronaphtho[1,2-p][1]oxa[4,7,10,14]tetraazacycloheptadecine-3-carboxamide]
Emax [6]: 132%

SMILES: CC(C)C[C@H]1C(=O)N2CCOC[C@@H]2C(=O)N[C@H](Cc2ccccc2)COc2cnc3ccccc3c2C(=O)N[C@H](C(=O)NCCc2ccccc2)CC(=O)N1C [Example 58, (9S,13S,19aR,22R)-22-benzyl-13-isobutyl-12-methyl-7,11,14,20-tetraoxo-N-phenethyl-7,8,9,10,11,12,13,14,16,17,19,19a,20,21,22,23-hexadecahydro-[1,4]oxazino[3′,4′:6,7][1]oxa[4,7,10,14]tetraazacycloheptadecino[17,16-c]quinoline-9-carboxamide]
EC50 [5]: 759 nM
Emax [6]: 175%

SMILES: CCc1ccc(CCNC(=O)[C@@H]2CC(=O)N(C)[C@@H](CC(C)C)C(=O)N3CCOC[C@@H]3C(=O)N[C@H](Cc3ccccc3)COc3cnc4ccccc4c3C(=O)N2)cc1 [Example 47, (9S,13S,19aR,22R)-22-benzyl-N-(4-ethylphenethyl)-13-isobutyl-12-methyl-7,11,14,20-tetraoxo-7,8,9,10,11,12,13,14,16,17,19,19a,20,21,22,23-hexadecahydro-[1,4]oxazino[3′,4′:6,7][1]oxa[4,7,10,14]tetraazacycloheptadecino[17,16-c]quinoline-9-carboxamide]
EC50 [5]: 213 nM
Emax [6]: 247%

Results, then the compound that gave them:

EC50 [5]: 474 nM
Emax [6]: 295%
SMILES: COc1nccc2c1C(=O)N[C@H](C(=O)NCCc1cc(C(F)F)no1)CC(=O)N(C)[C@@H](CC(C)C)C(=O)N1CCCC[C@@H]1C(=O)N[C@H](Cc1ccccc1)CO2 [Example 191, (7S,11S,17aR,20R)-20-benzyl-N-(2-(3-(difluoromethyl)isoxazol-5-yl)ethyl)-11-isobutyl-4-methoxy-10-methyl-5,9,12,18-tetraoxo-5,6,7,8,9,10,11,12,15,16,17,17a,18,19,20,21-hexadecahydro-14H-dipyrido[2,1-f:3′,4′-p][1]oxa[4,7,10,14]tetraazacycloheptadecine-7-carboxamide]

EC50 [5]: 196 nM
Emax [6]: 283%
SMILES: CC(C)C[C@H]1C(=O)N2CCCC[C@@H]2C(=O)N[C@H](Cc2ccccc2)COc2cnc3ccccc3c2C(=O)N[C@H](C(=O)NCCc2nc(-c3ccccc3)no2)CC(=O)N1C [Example 76, (9S,13S,19aR,22R)-22-benzyl-13-isobutyl-12-methyl-7,11,14,20-tetraoxo-N-(2-(3-phenyl-1,2,4-oxadiazol-5-yl)ethyl)-7,8,9,10,11,12,13,14,17,18,19,19a,20,21,22,23-hexadecahydro-16H-pyrido[2′,1′:6,7][1]oxa[4,7,10,14]tetraazacycloheptadecino[17,16-c]quinoline-9-carboxamide]

EC50 [1]: 319 nM
Emax [2]: 109%
SMILES: CC(C)C[C@H]1C(=O)N2CCCC[C@H]2C(=O)N[C@H](Cc2ccccc2)COc2cnc3ccccc3c2C(=O)N[C@H](C(=O)NCCc2ccc(-n3nccn3)cc2)CC(=O)N1C [Example 464, (9S,13S,19aS,22R)-N-(4-(2H-1,2,3-triazol-2-yl)phenethyl)-22-benzyl-13-isobutyl-12-methyl-7,11,14,20-tetraoxo-7,8,9,10,11,12,13,14,17,18,19,19a,20,21,22,23-hexadecahydro-16H-pyrido[2′,1′:6,7][1]oxa[4,7,10,14]tetraazacycloheptadecino[17,16-c]quinoline-9-carboxamide]

EC50 [1]: 204 nM
Emax [2]: 237%
SMILES: CC(C)C[C@H]1C(=O)N2CCCC[C@H]2C(=O)N[C@H](Cc2ccccc2)COc2cnc3c(F)cccc3c2C(=O)N[C@H](C(=O)NCCc2ccc(-n3nccn3)cc2)CC(=O)N1C [Example 522, (9S,13S,19aR,22R)-N-(4-(2H-1,2,3-triazol-2-yl)phenethyl)-22-benzyl-3-fluoro-13-isobutyl-12-methyl-7,11,14,20-tetraoxo-7,8,9,10,11,12,13,14,17,18,19,19a,20,21,22,23-hexadecahydro-16H-pyrido[2′,1′:6,7][1]oxa[4,7,10,14]tetraazacycloheptadecino[17,16-c]quinoline-9-carboxamide]

EC50 [5]: 406 nM
Emax [6]: 270%
SMILES: COc1nccc2c1C(=O)N[C@H](C(=O)NCCc1nc(-c3ccccc3)no1)CC(=O)N(C)[C@@H](CC(C)C)C(=O)N1CCCC[C@@H]1C(=O)N[C@H](Cc1ccccc1)CO2 [Example 182, (7S,11S,17aR,20R)-20-benzyl-11-isobutyl-4-methoxy-10-methyl-5,9,12,18-tetraoxo-N-(2-(3-phenyl-1,2,4-oxadiazol-5-yl)ethyl)-5,6,7,8,9,10,11,12,15,16,17,17a,18,19,20,21-hexadecahydro-14H-dipyrido[2,1-f:3′,4′-p][1]oxa[4,7,10,14]tetraazacycloheptadecine-7-carboxamide]

EC50 [3]: 447 nM
Emax [4]: 404%
SMILES: Cc1cc(CCNC(=O)[C@@H]2CC(=O)N(C)[C@@H](CC(C)C)C(=O)N(C)[C@H](CC(F)F)C(=O)N[C@H](Cc3ccccc3)COc3ccc4ncc(F)cc4c3C(=O)N2)on1 [Example 946, (3S,7S,10R,13R)-13-benzyl-10-(2,2-difluoroethyl)-20-fluoro-7-isobutyl-6,9-dimethyl-N-(2-(3-methylisoxazol-5-yl)ethyl)-1,5,8,11-tetraoxo-1,2,3,4,5,6,7,8,9,10,11,12,13,14-tetradecahydro-[1]oxa[4,7,10,14]tetraazacycloheptadecino[16,17-f]quinoline-3-carboxamide]

EC50 [3]: 819 nM
Emax [4]: 294%
SMILES: COc1cc(CCNC(=O)[C@@H]2CC(=O)N(C)[C@@H](CC(C)C)C(=O)N3CCCC[C@@H]3C(=O)N[C@H](Cc3ccccc3)COc3ccc4ncc(F)cc4c3C(=O)N2)on1 (single isomer, unassigned) [Example 899]

EC50 [3]: 123 nM
Emax [4]: 336%
SMILES: COc1cc(CCNC(=O)[C@@H]2CC(=O)N(C)[C@@H](CC(C)C)C(=O)N(C)C3(CC(F)(F)C3)C(=O)N[C@H](Cc3ccccc3)COc3cnc4ccc(F)cc4c3C(=O)N2)on1 [Example 839, (3′S,7′S,13′R)-13′-benzyl-3,3,20′-trifluoro-7′-isobutyl-N-(2-(3-methoxyisoxazol-5-yl)ethyl)-6′,9′-dimethyl-1′,5′,8′,11′-tetraoxo-2′,3′,4′,5′,6′,7′,8′,9′,11′,12′,13′,14′-dodecahydro-1′H-spiro[cyclobutane-1,10′-[1]oxa[4,7,10,14]tetraazacycloheptadecino[17,16-c]quinoline]-3′-carboxamide]

— US20240208992A1, “MACROCYCLES AS CFTR MODULATORS” (Idorsia Pharmaceuticals Ltd, priority 2021, published 2024)
